Results taken from article PMC4071569, “Investigation of Indolglyoxamide and Indolacetamide Analogues of Polyamines as Antimalarial and Antitrypanosomal Agents” (Marine Drugs, 2014).
Read-outs that look alike come from different tables or passages of the source.

Legend:
Assay type in all cases: cell-based
[1] = test system: Plasmodium falciparum, NF54 strain, IEF stage; assay: In vitro antimalarial activity, NF54 drug sensitive strain; conditions: for Pf SI (selectivity index for P. falciparum = IC50 L6/IC50 Pf): NF54 strain vs L6
Experimental: (§1) The in vitro activities against the protozoan parasites T.b. rhodesiense, and P. falciparum and cytotoxicity assessment against L6 cells were determined as reported elsewhere.

[2] = test system: L6 rat skeletal myoblast cell line; assay: Cytotoxicity towards L6 cells; conditions: read-out: IC50 L6
Experimental: as §1

[3] = test system: Trypanosoma brucei rhodesiense, STIB 900 strain, trypomastigotes stage; assay: In vitro anti-trypanosomal activity (growth inhibition); conditions: Trypanosoma brucei, read-out: IC50 T. b. rhod.
Experimental: as §1

[4] = Plasmodium falciparum, NF54 strain, IEF stage, average of two independent assays, read-out: IC50 P. falc.
[5] = L6 rat skeletal myoblast cell line, average of two independent assays
[6] = STIB 900 strain, trypomastigotes, average of two independent assays
[7] = NF54 strain, IEF stage, average of two independent assays, read-out: IC50 P. falc.

Compound	IC50 ([1]; Plasmodium falciparum, NF54, read-out: IC50 P. falc.)	IC50 [1, 4]	IC50 [3, 6]	Pf SI (selectivity index for P. falciparum = IC50 L6/IC50 Pf) [1]	IC50 [2, 5]	IC50 [3]	IC50 ([2]; Rattus norvegicus, Myoblast)	IC50 [1, 7]
CCN(CC)CCCC(C)Nc1ccnc2cc(Cl)ccc12 (stereo not shown) [Chloroquine, reference compound]	4 nM	–	–	–	–	–	–	–
O=C(NCCCCNCCCNC(=O)C(=O)c1c[nH]c2cc(Br)ccc12)C(=O)c1c[nH]c2cc(Br)ccc12.O=C(O)C(F)(F)F [Compound 5, 4-(2-(6-Bromo-1H-indol-3-yl)-2-oxoacetamido)-N-(3-(2-(6-bromo-1H-indol-3-yl)-2-oxoacetamido)propyl)butan-1-aminium 2,2,2-trifluoroacetate]	–	250 nM	–	22	5500 nM	–	–	–
O=C(NCCCNCCCCNCCCNC(=O)C(=O)c1c[nH]c2cc(Br)ccc12)C(=O)c1c[nH]c2cc(Br)ccc12.O=C(O)C(F)(F)F.O=C(O)C(F)(F)F [Compound 6, N^1,N^4-Bis(3-(2-(6-bromo-1H-indol-3-yl)-2-oxoacetamido)propyl)butane-1,4-diaminium 2,2,2-trifluoroacetate]	–	360 nM	–	21	7700 nM	–	–	–
CC(C)(C)OC(=O)N(CCCCCCCCN(CCCNC(=O)C(=O)c1c[nH]c2cc(Br)ccc12)C(=O)OC(C)(C)C)CCCNC(=O)C(=O)c1c[nH]c2cc(Br)ccc12 [Compound 7, Di-tert-butyl Octane-1,8-diylbis((3-(2-(6-bromo-1H-indol-3-yl)-2-oxoacetamido)propyl)carbamate)]	–	270 nM	–	340	92000 nM	–	–	–
O=C(NCCCNCCCCCCCCNCCCNC(=O)C(=O)c1c[nH]c2cc(Br)ccc12)C(=O)c1c[nH]c2cc(Br)ccc12.O=C(O)C(F)(F)F.O=C(O)C(F)(F)F [Compound 8, N^1,N^8-Bis(3-(2-(6-bromo-1H-indol-3-yl)-2-oxoacetamido)propyl)octane-1,8-diaminium 2,2,2-trifluoroacetate]	–	410 nM	–	14	5600 nM	–	–	–
O=C(NCCCNCCCCNCCCNC(=O)C(=O)c1c[nH]c2ccccc12)C(=O)c1c[nH]c2ccccc12.O=C(O)C(F)(F)F.O=C(O)C(F)(F)F [Compound 13, N^1,N^4-Bis(3-(2-(1H-indol-3-yl)-2-oxoacetamido)propyl)butane-1,4-diaminium 2,2,2-trifluoroacetate]	–	120 nM	–	500	60000 nM	–	–	–
COc1ccc2[nH]cc(C(=O)C(=O)NCCCN(CCCCCCCCN(CCCNC(=O)C(=O)c3c[nH]c4ccc(OC)cc34)C(=O)OC(C)(C)C)C(=O)OC(C)(C)C)c2c1 [Compound 18, Di-tert-butyl Octane-1,8-diylbis((3-(2-(5-methoxy-1H-indol-3-yl)-2-oxoacetamido)propyl)carbamate)]	–	130 nM	6200 nM	≥920	≥ 120000 nM	–	–	–
CC(C)(C)OC(=O)N(CCCCCCCCCCCCN(CCCNC(=O)C(=O)c1c[nH]c2ccccc12)C(=O)OC(C)(C)C)CCCNC(=O)C(=O)c1c[nH]c2ccccc12 [Compound 21, Di-tert-butyl Dodecane-1,12-diylbis((3-(2-(1H-indol-3-yl)-2-oxoacetamido)propyl)carbamate)]	–	1800 nM	61000 nM	≥67	≥ 120000 nM	–	–	–
COc1ccc2[nH]cc(C(=O)C(=O)NCCCN(CCCCCCCCCCCCN(CCCNC(=O)C(=O)c3c[nH]c4ccc(OC)cc34)C(=O)OC(C)(C)C)C(=O)OC(C)(C)C)c2c1 [Compound 22, Di-tert-butyl Dodecane-1,12-diylbis((3-(2-(5-methoxy-1H-indol-3-yl)-2-oxoacetamido)propyl)carbamate)]	–	360 nM	5200 nM	53	19000 nM	–	–	–
COc1ccc2c(C(=O)C(=O)NCCCN(CCCCCCCCCCCCN(CCCNC(=O)C(=O)c3c[nH]c4cc(OC)ccc34)C(=O)OC(C)(C)C)C(=O)OC(C)(C)C)c[nH]c2c1 [Compound 23, Di-tert-butyl Dodecane-1,12-diylbis((3-(2-(6-methoxy-1H-indol-3-yl)-2-oxoacetamido)propyl)carbamate)]	–	1900 nM	62000 nM	≥58	≥ 110000 nM	–	–	–
COc1cccc2c(C(=O)C(=O)NCCCN(CCCCCCCCCCCCN(CCCNC(=O)C(=O)c3c[nH]c4c(OC)cccc34)C(=O)OC(C)(C)C)C(=O)OC(C)(C)C)c[nH]c12 [Compound 24, Di-tert-butyl Dodecane-1,12-diylbis((3-(2-(7-methoxy-1H-indol-3-yl)-2-oxoacetamido)propyl)carbamate)]	–	1700 nM	63000 nM	≥65	≥ 110000 nM	–	–	–
O=C(NCCCNCCCCCCCCNCCCNC(=O)C(=O)c1c[nH]c2ccccc12)C(=O)c1c[nH]c2ccccc12.O=C(O)C(F)(F)F.O=C(O)C(F)(F)F [Compound 25, N^1,N^8-Bis(3-(2-(1H-indol-3-yl)-2-oxoacetamido)propyl)octane-1,8-diaminium 2,2,2-trifluoroacetate]	–	110 nM	2500 nM	170	19000 nM	–	–	–
Nc1nc(N)nc(Nc2ccc([As]3SCC(CO)S3)cc2)n1 (stereo not shown) [Melarsoprol, reference compound]	–	–	–	–	–	5 nM	–	–
COc1cc([C@@H]2c3cc4c(cc3[C@H](O)[C@H]3COC(=O)[C@H]23)OCO4)cc(OC)c1OC [Podophyllotoxin, reference compound]	–	–	–	–	–	–	19 nM	–
N^1,N^4-Bis(3-(2-(5-methoxy-1H-indol-3-yl)acetamido)propyl)butane-1,4-diaminium 2,2,2-trifluoroacetate [Compound 14]	–	–	–	120	56000 nM	–	–	470 nM
N^1,N^4-Bis(3-(2-(6-methoxy-1H-indol-3-yl)acetamido)propyl)butane-1,4-diaminium 2,2,2-trifluoroacetate [Compound 15]	–	–	–	110	54000 nM	–	–	500 nM

Second part, led by results:

IC50 ([1]; Plasmodium falciparum, NF54, read-out: IC50 P. falc.)	IC50 [1, 4]	IC50 [3, 6]	Compound	Pf SI (selectivity index for P. falciparum = IC50 L6/IC50 Pf) [1]	IC50 [2, 5]	IC50 [3]	IC50 ([2]; Rattus norvegicus, Myoblast)	IC50 [1, 7]
–	130 nM	780 nM	COc1ccc2[nH]cc(C(=O)C(=O)NCCCNCCCCCCCCNCCCNC(=O)C(=O)c3c[nH]c4ccc(OC)cc34)c2c1.O=C(O)C(F)(F)F.O=C(O)C(F)(F)F [Compound 26, N^1,N^8-Bis(3-(2-(5-methoxy-1H-indol-3-yl)-2-oxoacetamido)propyl)octane-1,8-diaminium 2,2,2-trifluoroacetate]	100	13000 nM	–	–	–
–	170 nM	2200 nM	COc1ccc2c(C(=O)C(=O)NCCCNCCCCCCCCNCCCNC(=O)C(=O)c3c[nH]c4cc(OC)ccc34)c[nH]c2c1.O=C(O)C(F)(F)F.O=C(O)C(F)(F)F [Compound 27, N^1,N^8-Bis(3-(2-(6-methoxy-1H-indol-3-yl)-2-oxoacetamido)propyl)octane-1,8-diaminium 2,2,2-trifluoroacetate]	120	21000 nM	–	–	–
–	120 nM	2100 nM	COc1cccc2c(C(=O)C(=O)NCCCNCCCCCCCCNCCCNC(=O)C(=O)c3c[nH]c4c(OC)cccc34)c[nH]c12.O=C(O)C(F)(F)F.O=C(O)C(F)(F)F [Compound 28, N^1,N^8-Bis(3-(2-(7-methoxy-1H-indol-3-yl)-2-oxoacetamido)propyl)octane-1,8-diaminium 2,2,2-trifluoroacetate]	55	6600 nM	–	–	–
–	33 nM	270 nM	O=C(NCCCNCCCCCCCCCCCCNCCCNC(=O)C(=O)c1c[nH]c2ccccc12)C(=O)c1c[nH]c2ccccc12.O=C(O)C(F)(F)F.O=C(O)C(F)(F)F [Compound 29, N^1,N^12-Bis(3-(2-(1H-indol-3-yl)-2-oxoacetamido)propyl)dodecane-1,12-diaminium 2,2,2-trifluoroacetate]	70	2300 nM	–	–	–
–	300 nM	–	CC(C)(C)OC(=O)N(CCCCCCCCN(CCCNC(=O)Cc1c[nH]c2ccccc12)C(=O)OC(C)(C)C)CCCNC(=O)Cc1c[nH]c2ccccc12 [Compound 34, Di-tert-butyl Octane-1,8-diylbis((3-(2-(1H-indol-3-yl)acetamido)propyl)carbamate)]	17	5000 nM	–	–	–
–	800 nM	–	CC(C)(C)OC(=O)N(CCCCCCCCCCCCN(CCCNC(=O)Cc1c[nH]c2ccccc12)C(=O)OC(C)(C)C)CCCNC(=O)Cc1c[nH]c2ccccc12 [Compound 35, Di-tert-butyl Dodecane-1,12-diylbis((3-(2-(1H-indol-3-yl)acetamido)propyl)carbamate)]	56	45000 nM	–	–	–
–	150 nM	–	O=C(Cc1c[nH]c2ccccc12)NCCCNCCCCCCCCNCCCNC(=O)Cc1c[nH]c2ccccc12.O=C(O)C(F)(F)F.O=C(O)C(F)(F)F [Compound 37, N^1,N^8-Bis(3-(2-(1H-indol-3-yl)acetamido)propyl)octane-1,8-diaminium 2,2,2-trifluoroacetate]	430	64000 nM	–	–	–
–	120 nM	–	O=C(Cc1c[nH]c2ccccc12)NCCCNCCCCCCCCCCCCNCCCNC(=O)Cc1c[nH]c2ccccc12.O=C(O)C(F)(F)F.O=C(O)C(F)(F)F [Compound 38, N^1,N^12-Bis(3-(2-(1H-indol-3-yl)acetamido)propyl)dodecane-1,12-diaminium 2,2,2-trifluoroacetate]	160	19000 nM	–	–	–
